Experimental data as given in ChEMBL document CHEMBL1201862, “PubChem BioAssay data set” (2004).
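Each compound was tested at five concentrations against cells in 96-well plates for 48 hours. GI50 = concentration required for 50% inhibition of growth.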 The source made the active and inactive calls. No stated cut-off is given here; in the data, active = GI50 up to about 1.1 µM and inactive = higher.

Tests used:
Test in all cases: NCI anticancer screen, dose series, 48 h
OVCAR-3 = test system: OVCAR-3
EKVX = test system: EKVX
MCF7 = test system: MCF7
OVCAR-8 = test system: OVCAR-8
SK-OV-3 = test system: SK-OV-3
COLO 205 = test system: COLO 205
HT-29 = test system: HT-29
UACC-62 = test system: UACC-62
SF-539 = test system: SF-539
SK-MEL-5 = test system: SK-MEL-5
SK-MEL-2 = test system: SK-MEL-2
MDA-N = test system: MDA-N
MDA-MB-231 = test system: MDA-MB-231
KM12 = test system: KM12
DU-145 = test system: DU-145
NCI/ADR-RES = test system: NCI/ADR-RES
HCT-15 = test system: HCT-15
NCI-H23 = test system: NCI-H23
K562 = test system: K562
SNB-75 = test system: SNB-75
SK-MEL-28 = test system: SK-MEL-28
SF-268 = test system: SF-268
OVCAR-5 = test system: OVCAR-5
MDA-MB-435 = test system: MDA-MB-435
SF-295 = test system: SF-295
Malme-3M = test system: Malme-3M
OVCAR-4 = test system: OVCAR-4
NCI-H460 = test system: NCI-H460
SR = test system: SR
HL-60 = test system: HL-60
M14 = test system: M14
A498 = test system: A498
LOX IMVI = test system: LOX IMVI
ACHN = test system: ACHN
Hs-578T = test system: Hs-578T
786-0 = test system: 786-0
RPMI-8226 = test system: RPMI-8226
T47D = test system: T47D
PC-3 = test system: PC-3
UACC-257 = test system: UACC-257
HOP-92 = test system: HOP-92
RXF 393 = test system: RXF 393
NCI-H226 = test system: NCI-H226
A549 = test system: A549
CAKI-1 = test system: CAKI-1
IGROV-1 = test system: IGROV-1
SN12C = test system: SN12C
SW-620 = test system: SW-620
UO-31 = test system: UO-31
NCI-H522 = test system: NCI-H522
BT-549 = test system: BT-549
HCT-116 = test system: HCT-116
MOLT-4 = test system: MOLT-4
TK-10 = test system: TK-10
U-251 = test system: U-251
HOP-62 = test system: HOP-62
CCRF-CEM = test system: CCRF-CEM

Q: Which GI50 (OVCAR-3) does the source give for `O=C(CCCn1ccnc1[N+](=O)[O-])NCCn1cncc1[N+](=O)[O-]` here?
A: > 100 µM (inactive)

Q: And the GI50 (EKVX)?
A: > 100 µM (inactive)

Q: And the GI50 (MCF7)?
A: > 100 µM (inactive)

Q: And the GI50 (OVCAR-8)?
A: > 100 µM (inactive)

Q: What about the GI50 (SK-OV-3) of the same compound?
A: > 100 µM (inactive)

Q: What about the GI50 (COLO 205) of the same compound?
A: > 100 µM (inactive)

Q: What about the GI50 (HT-29) of the same compound?
A: > 100 µM (inactive)

Q: What about the GI50 (UACC-62) of the same compound?
A: > 100 µM (inactive)

Q: And the GI50 (SF-539)?
A: > 100 µM (inactive)

Q: And the GI50 (SK-MEL-5)?
A: > 100 µM (inactive)

Q: And the GI50 (SK-MEL-2)?
A: > 100 µM (inactive)

Q: What about the GI50 (MDA-N) of the same compound?
A: > 100 µM (inactive)

Q: What about the GI50 (MDA-MB-231) of the same compound?
A: > 100 µM (inactive)

Q: What about the GI50 (KM12) of the same compound?
A: > 100 µM (inactive)

Q: What about the GI50 (DU-145) of the same compound?
A: > 100 µM (inactive)

Q: And the GI50 (NCI/ADR-RES)?
A: > 100 µM (inactive)

Q: What about the GI50 (HCT-15) of the same compound?
A: > 100 µM

Q: What about the GI50 (NCI-H23) of the same compound?
A: > 100 µM (inactive)

Q: What about the GI50 (K562) of the same compound?
A: > 100 µM (inactive)

Q: What about the GI50 (SNB-75) of the same compound?
A: > 100 µM (inactive)

Q: What about the GI50 (SK-MEL-28) of the same compound?
A: > 100 µM (inactive)

Q: What about the GI50 (SF-268) of the same compound?
A: > 100 µM (inactive)

Q: What about the GI50 (OVCAR-5) of the same compound?
A: > 100 µM (inactive)

Q: What about the GI50 (MDA-MB-435) of the same compound?
A: > 100 µM (inactive)

Q: What about the GI50 (SF-295) of the same compound?
A: > 100 µM (inactive)

Q: What about the GI50 (Malme-3M) of the same compound?
A: > 100 µM (inactive)

Q: And the GI50 (OVCAR-4)?
A: > 100 µM (inactive)

Q: What about the GI50 (NCI-H460) of the same compound?
A: > 100 µM (inactive)

Q: And the GI50 (SR)?
A: > 100 µM (inactive)

Q: And the GI50 (HL-60)?
A: > 100 µM (inactive)

Q: What about the GI50 (M14) of the same compound?
A: > 100 µM (inactive)

Q: What about the GI50 (A498) of the same compound?
A: > 100 µM (inactive)

Q: And the GI50 (LOX IMVI)?
A: > 100 µM (inactive)

Q: What about the GI50 (ACHN) of the same compound?
A: > 100 µM (inactive)

Q: What about the GI50 (Hs-578T) of the same compound?
A: > 100 µM (inactive)

Q: What about the GI50 (786-0) of the same compound?
A: > 100 µM (inactive)

Q: What about the GI50 (RPMI-8226) of the same compound?
A: > 100 µM (inactive)

Q: And the GI50 (T47D)?
A: > 100 µM (inactive)

Q: What about the GI50 (PC-3) of the same compound?
A: > 100 µM (inactive)

Q: And the GI50 (UACC-257)?
A: > 100 µM (inactive)

Q: What about the GI50 (HOP-92) of the same compound?
A: > 100 µM (inactive)

Q: What about the GI50 (RXF 393) of the same compound?
A: > 100 µM (inactive)

Q: And the GI50 (NCI-H226)?
A: > 100 µM (inactive)

Q: And the GI50 (A549)?
A: > 100 µM (inactive)

Q: What about the GI50 (CAKI-1) of the same compound?
A: > 100 µM (inactive)

Q: And the GI50 (IGROV-1)?
A: > 100 µM (inactive)

Q: What about the GI50 (SN12C) of the same compound?
A: > 100 µM (inactive)

Q: And the GI50 (SW-620)?
A: > 100 µM (inactive)

Q: And the GI50 (UO-31)?
A: > 100 µM (inactive)

Q: What about the GI50 (NCI-H522) of the same compound?
A: > 100 µM (inactive)

Q: What about the GI50 (BT-549) of the same compound?
A: > 100 µM (inactive)

Q: And the GI50 (HCT-116)?
A: > 100 µM (inactive)

Q: And the GI50 (MOLT-4)?
A: > 100 µM (inactive)

Q: And the GI50 (TK-10)?
A: > 100 µM (inactive)

Q: And the GI50 (U-251)?
A: > 100 µM (inactive)

Q: What about the GI50 (HOP-62) of the same compound?
A: > 100 µM (inactive)

Q: And the GI50 (CCRF-CEM)?
A: > 100 µM (inactive)
